The series deals with CCRIS mutagenicity, Ames/micronucleus/aberration tests. Briefly: CCRIS mutagenicity studies.
Where [1] appears, read: Test System: AMES SALMONELLA TYPHIMURIUM, Strain/Indicator: TA98, Metabolic Activation: NONE, Method: PREINCUBATION
Where [2] appears, read: Test System: AMES SALMONELLA TYPHIMURIUM, Strain/Indicator: TA100, Metabolic Activation: NONE, Method: PREINCUBATION
The mark [3] stands for this setting: Test System: AMES SALMONELLA TYPHIMURIUM, Strain/Indicator: TA98, Metabolic Activation: NONE, Method: STANDARD PLATE.
The mark [4] stands for this setting: Test System: AMES SALMONELLA TYPHIMURIUM, Strain/Indicator: TA98, Metabolic Activation: RAT, LIVER, S-9, AROCLOR 1254, Method: STANDARD PLATE.
The mark [5] stands for this setting: Test System: AMES SALMONELLA TYPHIMURIUM, Strain/Indicator: TA100, Metabolic Activation: NONE, Method: STANDARD PLATE.

Activity calls are given as the source filed them. No rule for the calls is given here.

In the case of `CCc1cccc(CC)c1NC(=O)CO`, the mutagenic call was “inactive; negative” under setting [1]; “inactive; negative” (Test System: AMES SALMONELLA TYPHIMURIUM, Strain/Indicator: TA98, Metabolic Activation: RAT, LIVER, MICROSOMES, PHENOBARBITAL, Method: PREINCUBATION); “inactive; negative” under setting [2]; “active; positive” (Test System: AMES SALMONELLA TYPHIMURIUM, Strain/Indicator: TA100, Metabolic Activation: RAT, LIVER, MICROSOMES, PHENOBARBITAL, Method: PREINCUBATION).

Regarding `CC(C)(C)CNC(=O)C=Cc1ccc([N+](=O)[O-])o1`, under setting [1], the mutagenic call was “active; positive”.

As to `Cn1c(NO)nc2ncc(-c3ccccc3)cc21`, the mutagenic call (Test System: AMES SALMONELLA TYPHIMURIUM, Strain/Indicator: TA98(1,8-DNP6), Metabolic Activation: NONE, Method: STANDARD PLATE) was “active; positive”; the mutagenic call under setting [3] is “active; positive”; the mutagenic call under setting [4] is “active; positive”.

In the case of `O=Cc1ccc([N+](=O)[O-])cc1[N+](=O)[O-]`, the mutagenic call runs as follows: (Test System: AMES SALMONELLA TYPHIMURIUM, Strain/Indicator: TA98(1,8-DNP6), Metabolic Activation: NONE, Method: SUSPENSION/PLATE) “active; positive”; (Test System: AMES SALMONELLA TYPHIMURIUM, Strain/Indicator: TA98(NR), Metabolic Activation: NONE, Method: SUSPENSION/PLATE) “active; positive”; under setting [1], “active; positive”; (Test System: AMES SALMONELLA TYPHIMURIUM, Strain/Indicator: TA98, Metabolic Activation: NONE, Method: SUSPENSION/PLATE) “active; positive”; (Test System: AMES SALMONELLA TYPHIMURIUM, Strain/Indicator: TA98, Metabolic Activation: RAT, LIVER, S-9, PHENOBARBITAL AND 5,6-BENZOFLAVONE, Method: PREINCUBATION) “active; positive”; (Test System: AMES SALMONELLA TYPHIMURIUM, Strain/Indicator: TA100(1,8-DNP6), Metabolic Activation: NONE, Method: SUSPENSION/PLATE) “active; positive”. Besides, the mutagenic call by setting is: (Test System: AMES SALMONELLA TYPHIMURIUM, Strain/Indicator: TA100(NR), Metabolic Activation: NONE, Method: SUSPENSION/PLATE) “active; positive”; under setting [2], “active; positive”; (Test System: AMES SALMONELLA TYPHIMURIUM, Strain/Indicator: TA100, Metabolic Activation: NONE, Method: SUSPENSION/PLATE) “active; positive”; (Test System: AMES SALMONELLA TYPHIMURIUM, Strain/Indicator: TA100, Metabolic Activation: RAT, LIVER, S-9, PHENOBARBITAL AND 5,6-BENZOFLAVONE, Method: PREINCUBATION) “active; positive”.

`CCOP(=O)(OCC)Oc1nc(Cl)c(Cl)cc1Cl`: the mutagenic call is “inactive; negative” under setting [3]; “inactive; negative” (Test System: AMES SALMONELLA TYPHIMURIUM, Strain/Indicator: TA98, Metabolic Activation: RAT, LIVER, S-9, Method: STANDARD PLATE); “inactive; negative” under setting [5]; “inactive; negative” (Test System: AMES SALMONELLA TYPHIMURIUM, Strain/Indicator: TA100, Metabolic Activation: RAT, LIVER, S-9, Method: STANDARD PLATE).

`Cc1cc(N(C)C)ccc1N=Nc1ccccc1`: the mutagenic call is, setting by setting: (Test System: AMES SALMONELLA TYPHIMURIUM, Strain/Indicator: TA98, Metabolic Activation: RAT, LIVER, MICROSOMES, 2-METHYL-4-DIMETHYLAMINOAZOBENZENE, Method: PREINCUBATION) “inactive; negative”; (Test System: AMES SALMONELLA TYPHIMURIUM, Strain/Indicator: TA98, Metabolic Activation: RAT, LIVER, MICROSOMES, AROCLOR 1254, Method: PREINCUBATION) “active; positive”; (Test System: AMES SALMONELLA TYPHIMURIUM, Strain/Indicator: TA98, Metabolic Activation: RAT, LIVER, MICROSOMES, Method: PREINCUBATION) “inactive; negative”; under setting [4], “active; positive”; (Test System: AMES SALMONELLA TYPHIMURIUM, Strain/Indicator: TA98, Metabolic Activation: RAT, LIVER, S-9, KC500 OR PHENOBARBITAL, Method: LIQUID SUSPENSION) “active; positive”; (Test System: AMES SALMONELLA TYPHIMURIUM, Strain/Indicator: TA100, Metabolic Activation: RAT, LIVER, S-9, AROCLOR 1254, Method: STANDARD PLATE) “active; positive”. The mutagenic call is “active; positive” (Test System: AMES SALMONELLA TYPHIMURIUM, Strain/Indicator: TA100, Metabolic Activation: RAT, LIVER, S-9, KC500 OR PHENOBARBITAL, Method: LIQUID SUSPENSION) and “active; positive” (Test System: UDS RODENT HEPATOCYTES, Strain/Indicator: THY INCORP (NON-S-PHASE), Method: AUTORADIOGRAPHY).

As to `O=CNc1ccc(Oc2ccc(Cl)cc2Cl)cc1`, the mutagenic call is, setting by setting: under setting [5], “inactive; negative”; (Test System: AMES SALMONELLA TYPHIMURIUM, Strain/Indicator: TA100, Metabolic Activation: RAT, LIVER, S-9, KANECLOR 500, Method: STANDARD PLATE) “active; positive”.

The values are drawn from PubChem BioAssay AID1259407 (Chemical Carcinogenesis Research Information System (CCRIS), 2018).
